What all share (assay): relative viability (nuclei count vs DMSO), 5 days (fraction); higher = more cells survive
Compound in the test “TGX 221 + Foretinib”: CC1=CN2C(=O)C=C(N=C2C(=C1)C(C)NC3=CC=CC=C3)N4CCOCC4 [TGX 221] + COc1cc2c(Oc3ccc(NC(=O)C4(C(=O)Nc5ccc(F)cc5)CC4)cc3F)ccnc2cc1OCCCN1CCOCC1 [Foretinib] (partner 0.25 µM)
The procedure, abridged: (§1)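 Dosing by pin tool came one day after lung cancer cell lines were seeded in 1536-well plates, using either one drug or a fixed anchor-drug dose plus five library-drug doses (not always all listed) in √10 steps. After 5 days, nuclei were counted on 4× images. Relative viability is treated-well nuclei count divided by vehicle-well nuclei count, and values are medians of duplicate plates.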

Compound in the test “TGX 221 + Pictilisib”: CC1=CN2C(=O)C=C(N=C2C(=C1)C(C)NC3=CC=CC=C3)N4CCOCC4 [TGX 221] + CS(=O)(=O)N1CCN(Cc2cc3nc(-c4cccc5[nH]ncc45)nc(N4CCOCC4)c3s2)CC1 [Pictilisib] (partner 1 µM)
The procedure, abridged:
as §1

Compound in the test “Ricolinostat + Alpelisib”: O=C(CCCCCCNC(=O)c1cnc(N(c2ccccc2)c2ccccc2)nc1)NO [Ricolinostat] + Cc1nc(NC(=O)N2CCC[C@H]2C(N)=O)sc1-c1ccnc(C(C)(C)C(F)(F)F)c1 [Alpelisib] (partner 2 µM)
Put shortly:
as §1

Compound in test [1]: C1=CC=C(C(=C1)C2=CC=C(C=C2)C3=CSC4=C3C(=C(C(=O)N4)C#N)O)O + Nc1nc2[nH]cc(CCc3ccc(C(=O)N[C@@H](CCC(=O)O)C(=O)O)cc3)c2c(=O)[nH]1 [Pemetrexed] (partner 0.2 µM)
The procedure, abridged:
as §1

For the cell line NCI-H23, the relative viability with TGX 221 + Foretinib (first compound 0.08 µM) stood at 0.84; in the test with TGX 221 + Foretinib (first compound 0.253 µM), 0.861; in the test with TGX 221 + Foretinib (first compound 0.8 µM), 1.03; with TGX 221 + Foretinib (first compound 2.53 µM), 0.87; with TGX 221 + Foretinib (first compound 8 µM), 0.65; in the test with TGX 221 + Pictilisib (first compound 0.08 µM) it was 0.518. Moreover, the relative viability with TGX 221 + Pictilisib (first compound 0.253 µM) was 0.465; in the test with TGX 221 + Pictilisib (first compound 0.8 µM), 0.446; with TGX 221 + Pictilisib (first compound 2.53 µM), 0.439; with TGX 221 + Pictilisib (first compound 8 µM) it was 0.451; with Ricolinostat + Alpelisib (first compound 0.08 µM) it was 0.56; with Ricolinostat + Alpelisib (first compound 0.253 µM), 0.644. In addition, the relative viability in the test with Ricolinostat + Alpelisib (first compound 0.8 µM) was determined as 0.882; in the test with Ricolinostat + Alpelisib (first compound 2.53 µM), 0.703; in test [1] (first compound 0.08 µM), 0.536; in test [1] (first compound 0.253 µM) it was 0.619; in test [1] (first compound 0.8 µM), 0.59; in test [1] (first compound 2.53 µM) it was 0.627. Further, the relative viability in test [1] (first compound 8 µM) came to 0.653.

On to NCI-H358, for which the relative viability with TGX 221 + Foretinib (first compound 0.08 µM) is 0.702; with TGX 221 + Foretinib (first compound 0.253 µM) it was 0.664; with TGX 221 + Foretinib (first compound 0.8 µM), 0.711; in the test with TGX 221 + Foretinib (first compound 2.53 µM), 0.597; with TGX 221 + Foretinib (first compound 8 µM), 0.587; with TGX 221 + Pictilisib (first compound 0.08 µM), 0.374. The relative viability in the test with TGX 221 + Pictilisib (first compound 0.253 µM) worked out at 0.352; with TGX 221 + Pictilisib (first compound 0.8 µM), 0.373; with TGX 221 + Pictilisib (first compound 2.53 µM) it was 0.354; with TGX 221 + Pictilisib (first compound 8 µM) it was 0.32; with Ricolinostat + Alpelisib (first compound 0.08 µM), 0.733; with Ricolinostat + Alpelisib (first compound 0.253 µM) it was 0.997. The relative viability with Ricolinostat + Alpelisib (first compound 0.8 µM) was found to be 0.952; with Ricolinostat + Alpelisib (first compound 2.53 µM) it was 1.05; in test [1] (first compound 0.08 µM), 0.156; in test [1] (first compound 0.253 µM), 0.188; in test [1] (first compound 0.8 µM), 0.175; in test [1] (first compound 2.53 µM), 0.162. Further, the relative viability in test [1] (first compound 8 µM) is 0.176.

In the case of HCC-366, the relative viability with TGX 221 + Foretinib (first compound 0.08 µM) was 0.844; with TGX 221 + Foretinib (first compound 0.253 µM), 0.892; with TGX 221 + Foretinib (first compound 0.8 µM), 0.96; in the test with TGX 221 + Foretinib (first compound 2.53 µM), 0.902; with TGX 221 + Foretinib (first compound 8 µM) it was 0.813; with TGX 221 + Pictilisib (first compound 0.08 µM), 0.103. Further, the relative viability with TGX 221 + Pictilisib (first compound 0.253 µM) worked out at 0.152; with TGX 221 + Pictilisib (first compound 0.8 µM) it was 0.102; with TGX 221 + Pictilisib (first compound 2.53 µM) it was 0.147; in the test with TGX 221 + Pictilisib (first compound 8 µM) it was 0.0862; with Ricolinostat + Alpelisib (first compound 0.08 µM), 0.223; with Ricolinostat + Alpelisib (first compound 0.253 µM) it was 0.407. Further, the relative viability is 0.398 with Ricolinostat + Alpelisib (first compound 0.8 µM); 0.433 with Ricolinostat + Alpelisib (first compound 2.53 µM); 0.172 in test [1] (first compound 0.253 µM); 0.168 in test [1] (first compound 0.8 µM); 0.176 in test [1] (first compound 2.53 µM); 0.165 in test [1] (first compound 8 µM).

NCI-H2405: the relative viability with TGX 221 + Foretinib (first compound 0.08 µM) turned out to be 1.01; with TGX 221 + Foretinib (first compound 0.253 µM), 0.99; with TGX 221 + Foretinib (first compound 0.8 µM), 1.04; with TGX 221 + Foretinib (first compound 2.53 µM) it was 0.897; with TGX 221 + Foretinib (first compound 8 µM), 0.863; with TGX 221 + Pictilisib (first compound 0.08 µM), 0.36. For the same cell line, the relative viability in the test with TGX 221 + Pictilisib (first compound 0.253 µM) was 0.499; with TGX 221 + Pictilisib (first compound 0.8 µM), 0.426; with TGX 221 + Pictilisib (first compound 2.53 µM), 0.398; with TGX 221 + Pictilisib (first compound 8 µM), 0.366; with Ricolinostat + Alpelisib (first compound 0.08 µM), 0.524; with Ricolinostat + Alpelisib (first compound 0.253 µM) it was 0.805. Moreover, the relative viability with Ricolinostat + Alpelisib (first compound 0.8 µM) was 0.889; in the test with Ricolinostat + Alpelisib (first compound 2.53 µM) it was 1.08; in test [1] (first compound 0.08 µM), 1.01; in test [1] (first compound 0.8 µM), 1.07; in test [1] (first compound 2.53 µM), 0.975; in test [1] (first compound 8 µM), 0.948.

Consider NCI-H441, for which the relative viability with TGX 221 + Foretinib (first compound 0.08 µM) turned out to be 1.11; in the test with TGX 221 + Foretinib (first compound 0.253 µM) it was 0.849; in the test with TGX 221 + Foretinib (first compound 0.8 µM), 0.919; in the test with TGX 221 + Foretinib (first compound 2.53 µM), 0.897; with TGX 221 + Foretinib (first compound 8 µM), 0.96; with TGX 221 + Pictilisib (first compound 0.08 µM), 0.486. Moreover, the relative viability with TGX 221 + Pictilisib (first compound 0.253 µM) was 0.447; in the test with TGX 221 + Pictilisib (first compound 0.8 µM), 0.456; with TGX 221 + Pictilisib (first compound 2.53 µM), 0.511; with TGX 221 + Pictilisib (first compound 8 µM), 0.508; with Ricolinostat + Alpelisib (first compound 0.08 µM) it was 0.597; with Ricolinostat + Alpelisib (first compound 0.253 µM), 0.596. Also, the relative viability came out at 0.803 with Ricolinostat + Alpelisib (first compound 0.8 µM); 0.539 with Ricolinostat + Alpelisib (first compound 2.53 µM); 0.26 in test [1] (first compound 0.08 µM); 0.282 in test [1] (first compound 0.253 µM); 0.232 in test [1] (first compound 0.8 µM); 0.237 in test [1] (first compound 2.53 µM). Moreover, in test [1] (first compound 8 µM), the relative viability came to 0.267.

Regarding NCI-H322M, the relative viability with TGX 221 + Foretinib (first compound 0.08 µM) was 0.924; with TGX 221 + Foretinib (first compound 0.253 µM), 0.869; with TGX 221 + Foretinib (first compound 0.8 µM), 1; with TGX 221 + Foretinib (first compound 2.53 µM), 0.763; with TGX 221 + Foretinib (first compound 8 µM), 0.765; in the test with TGX 221 + Pictilisib (first compound 0.08 µM), 0.399. The relative viability with TGX 221 + Pictilisib (first compound 0.253 µM) turned out to be 0.479; with TGX 221 + Pictilisib (first compound 0.8 µM) it was 0.525; with TGX 221 + Pictilisib (first compound 2.53 µM), 0.477; in the test with TGX 221 + Pictilisib (first compound 8 µM) it was 0.478; in the test with Ricolinostat + Alpelisib (first compound 0.253 µM), 0.829; in the test with Ricolinostat + Alpelisib (first compound 0.8 µM), 0.795. The relative viability with Ricolinostat + Alpelisib (first compound 2.53 µM) is 0.715; in test [1] (first compound 0.08 µM), 0.561; in test [1] (first compound 0.253 µM), 0.574; in test [1] (first compound 0.8 µM) it was 0.657; in test [1] (first compound 2.53 µM), 0.576; in test [1] (first compound 8 µM), 0.559.

Values taken from the supplement of paper PMC10307832.
